# Where a name gives a salt, the structure may show the parent alone.
# Key:
# FUS-SNAP condensates = target: T1, FUS-SNAP condensates (Homo sapiens, UniProt P35637); assay: Mass spectrometry-based depletion assay of compound partitioning; assay type: physicochemical; details: for Partitioning into FUS-condensates at different compound concentrations (fraction of compound in supernatant): FIG. 8, 0.1 μM, 1 μM and 10 μM, N=3 technical repeats; for Partitioning into FUS-condensates at different compound concentrations (fraction of compound in supernatant) / Measured fraction outside of the FUS-SNAP condensates, single compound test reactions versus mixture of four compounds: 0.01 μM; for Identified partitioning into FUS-condensates: as identified before Example 5; for Ratio of compound concentration in versus compound concentration out, MS-based assay: condensate volume fraction of 1/1000 used; for Measured fraction outside of the FUS-SNAP condensates, single compound test reactions versus mixture of four compounds: FIG. 9A, 9B, 0.1 μM and 1 μM, triplicate
# T1 sequence (P35637 1-526): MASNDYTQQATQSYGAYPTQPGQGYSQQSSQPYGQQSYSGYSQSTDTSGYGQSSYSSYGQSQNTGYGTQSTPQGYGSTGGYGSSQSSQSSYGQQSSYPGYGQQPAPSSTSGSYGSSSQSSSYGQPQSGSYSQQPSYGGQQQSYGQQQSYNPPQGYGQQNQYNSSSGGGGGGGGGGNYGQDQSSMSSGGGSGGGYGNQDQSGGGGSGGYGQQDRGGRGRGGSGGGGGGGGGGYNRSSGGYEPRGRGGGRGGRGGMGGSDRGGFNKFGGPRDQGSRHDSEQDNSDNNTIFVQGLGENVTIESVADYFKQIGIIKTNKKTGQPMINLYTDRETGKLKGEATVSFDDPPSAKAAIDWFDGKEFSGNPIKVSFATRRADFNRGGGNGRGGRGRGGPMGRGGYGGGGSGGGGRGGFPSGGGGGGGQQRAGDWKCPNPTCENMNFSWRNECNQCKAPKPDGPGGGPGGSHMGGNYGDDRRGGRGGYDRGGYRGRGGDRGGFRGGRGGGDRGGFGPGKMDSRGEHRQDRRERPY
# Description: Protein Buffer was prepared (50 mM Tris, pH 7.25, 500 mM KCl, 1 mM DTT, and 5% glycerol). The high salt concentration of Protein Buffer prevents phase separation of macromolecules, e.g., proteins, contained therein. 20 μl aliquots of 70 μM FUS-SNAP protein stock solution were prepared in Protein Buffer. The aliquots of FUS-SNAP protein stock solution were frozen and stored prior to use. Dilution Buffer was prepared (14.7 mM Tris, pH 7.25, and 1 mM DTT).
# Aliquots of 70 μM FUS-SNAP protein stock solution were thawed at room temperature for about 10 minutes. The aliquots of protein stock solution appeared clear with no visible precipitates. The thawed protein stock solution were filtered using centrifugation filters (Millipore, UFC30VV00). In brief, the aliquots of protein stock solution were added to a centrifugation filed and centrifuged for 1 minutes at 20,000 rcf at room temperature. The flow-through was collected. The protein concentration of the flow-through was measured and a solution of 33.3 μM FUS-SNAP was prepared by diluting the filtered flow-through and Dilution Buffer.
# 40 μL test reactions were prepared inside a PCR-tube or a PCR-strip (8 wells; AXYGEN™ 8-Strip PCR Tubes, 0.2 mL) using the following: (i) 34 μL Dilution Buffer, with the test compound at a given concentration, and with DMSO to obtain a final DMSO concentration of 1%, and (ii) 6 μL of 33.3 μM FUS-SNAP filtered protein solution. The final concentration of the 40 reactions were 5 μM FUS-SNAP, 75 mM KCl, 20 mM Tris, 0.75% Glycerol, 1 mM DTT, 1% DMSO, and, for the reactions containing a test compound, the desired test compound concentration.
# 40 μL reference reactions were prepared as described for the test reactions, however, no test compound was added at this stage.
# The test reactions and the reference reactions were incubated for 15 minutes at room temperature. It is expected that within the test reactions, condensed high density liquid droplets (mM concentration of protein) of FUS-SNAP protein (condensed phase) are present in an environment of a lower concentrated solution (μM concentration of protein) of FUS-SNAP dilute phase. Test compounds may or may not partition into the condensed phase causing a reduction of the concentration outside (test compound in the dilute phase) and an increase of the concentration inside (test compound in the droplets). The volume of high density liquid droplets is estimated to be at least 1000-fold smaller than the total volume of the reaction, e.g., 20 nL of a condensed phase in a 20 μL reaction.
# Following the 15 minute incubation period, the test reactions and reference reactions were processed to separate condensates (the high density liquid droplets) from the supernatant (the dilute phase). Briefly, the test reactions and reference reactions were centrifuged at 10,000 rcf for 10 minutes in a cooled centrifuge at 20° C. When PCR-strips were sued, the rotor used was the Eppendorf F-45-48-5-PCR. 35 μL of the supernatant from each tube was removed and transferred to a new tube being careful not to disturb the pellets, which contained the condensates.
# For the reference reactions, a known amount of the test compound was added to the tube containing the supernatant (which contains protein not associated with a condensate), such that the final compound concentration is the same as the initial concentration of the compound in the test reaction. Reference reactions can also be formed by measuring the amount of protein in the supernatant of a test reaction and replicating a supernatant solution based on the obtained information. The known amount of the compound added to the supernatant from the reference reaction was used to calibrate the mass spectrometry signal of the test reaction.
# Additionally, the compound was extracted from the test reactions in order to directly measure the amount of compound in the formed condensates. […]
# FUS-GFP condensates = target: T2, FUS-GFP condensates (Homo sapiens, UniProt P35637); assay: Co-localization of dye and FUS in FUS-GFP condensates (confocal imaging); assay type: physicochemical; details: FIG. 6; FUS-GFP channel and Rhodamine 800 channel
# T2 sequence (P35637 1-526): T1 sequence (P35637 1-526)
# Description: FUS-GFP condensates were prepared as described for FUS-SNAP in Example 2 using Dye 18.
# A spinning disk confocal microscope was used to acquire images of the samples. A 60×oil high-NA objective lens was used to capture the condensate droplets. The laser power was set to 20% and the exposure times were adjusted to the fluorescence emission intensity specific for each dye. Exposure times ranged from 1-1000 ms. Appropriate filter settings were used, matching the excitation and emission spectra of the dye and GFP. Control images were taken of condensates containing FUS-GFP with no dye.
Compound,Partitioning into FUS-condensates at different compound concentrations (fraction of compound in supernatant) (FUS-SNAP condensates),Identified partitioning into FUS-condensates (FUS-SNAP condensates),"Ratio of compound concentration in versus compound concentration out, MS-based assay (FUS-SNAP condensates)","Measured fraction outside of the FUS-SNAP condensates, single compound test reactions versus mixture of four compounds (FUS-SNAP condensates)",Co-localization of dye with GFP-labeled FUS in condensates (FUS-GFP condensates)
"O=C([O-])c1ccccc1C1=c2cc3c4c(c2Oc2c1cc1c5c2CCCN5CCC1)CCC[N+]=4CCC3 [Dye 17, Rhodamine 101 inner salt]",partition into the FUS-condensates at lower compound concentrations,partitioning into FUS-condensates,">8,000",–,–
"O=C1OC2(c3ccc(O)cc3Oc3cc(O)ccc32)c2ccccc21 [Dye 6, Fluorescein]",does not partition into the FUS-condensates at any of the tested concentrations,not partitioning into FUS-condensates,1-100,in agreement,–
"N#CC1=c2cc3c4c(c2Oc2c1cc1c5c2CCCN5CCC1)CCC[N+]=4CCC3 [Dye 18, Rhodamine 800]",–,–,">2,000",–,co-localized in the condensates
"CCN(CC)c1ccc2c(-c3ccccc3C(=O)O)c3ccc(=[N+](CC)CC)cc-3oc2c1 [Dye 16, Rhodamine B]",–,–,666,in agreement,–
"COC(=O)c1ccccc1-c1c2ccc(=N)cc-2oc2cc(N)ccc12.Cl [Dye 14, Rhodamine 123]",–,–,1-100,–,–
